Results taken from article PMC9931918, “Conjugation to a cell-penetrating peptide drives the tumour accumulation of the GLP1R antagonist exendin(9-39)” (European Journal of Nuclear Medicine and Molecular Imaging, 2022).

How the values were obtained:
CHL-GLP1R cells = test: Binding and internalisation assay of 111In-labelled exendin variants on GLP1R-positive cells; format: cell-based, Chinese hamster
in vivo = test: in vivo; design: species or system BALB/c nude mice; conditions: BALB/c nude, mouse, iv, 20 pmol/mouse, total radioactivity
Method: Mice were injected subcutaneously on the right flank with 0.2 mL of a cell suspension containing 15,000,000 INS-1 cells/mL in RPMI (3,000,000 cells/mouse). When the tumours were 2–5 mm in diameter, mice were randomly divided into groups and the experiment was performed. All mice were intravenously injected with 20 pmol/mouse (0.37 MBq/mouse) of the corresponding radiolabelled exendin variant in approximately 200 μL PBS/0.5% BSA. 12 mice received [^111In]In-DTPA-exendin-4 (referred to as exendin-4), 12 mice received [^111In]In-DTPA-exendin-4-Pen (referred to as exendin-4-Pen), 11 mice received [^111In]In-DTPA-exendin(9-39) (referred to as exendin(9-39) and 11 mice received [^111In]In-DTPA-exendin(9-39)-Pen (referred to as exendin(9-39)-Pen). To determine non-specific uptake, an excess of unlabelled peptide was injected (blocking group). A 100-fold excess of unlabelled DTPA-exendin-4 or DTPA-exendin(9-39) was co-injected (5 or 6 mice per group). Blocking groups were only included at the 4 h timepoint, to reduce the number of mice used as a control. After 1 h and 4 h after injection, mice were euthanized by CO2/O2 asphyxiation. Blood, tumours and relevant tissues (muscle, heart, lung, spleen, pancreas, kidney, liver, stomach, duodenum and colon) of all animals were dissected, weighed and measured in a gamma-counter (2480 Wizard 3”, LKB/Wallace, Perkin-Elmer, Waltham, MA, USA). The percentage injected dose per gram tissue (% ID/g) was determined for each tissue, based on the cpm measured for diluted injection mixtures (standards). For the statistical analysis, the data were log transformed to correct for differences in the intra-group spread and ensure a normal distribution. The difference in tumour uptake between the four compounds was evaluated separately for each timepoint, with a one-way ANOVA and Tukey’s post hoc test. We accepted a type I alpha error of 0.05. The number of animals per group was selected assuming an SD of 10% of the mean, to reach a statistical power of 80% (beta type error = 0.2).

CC[C@H](C)[C@H](NC(=O)[C@H](Cc1ccccc1)NC(=O)[C@H](CC(C)C)NC(=O)[C@H](CCCNC(=N)N)NC(=O)[C@@H](NC(=O)[C@H](C)NC(=O)[C@H](CCC(=O)O)NC(=O)[C@H](CCC(=O)O)NC(=O)[C@H](CCC(=O)O)NC(=O)[C@H](CCSC)NC(=O)[C@H](CCC(N)=O)NC(=O)[C@H](CCCCN)NC(=O)[C@H](CO)NC(=O)[C@H](CC(C)C)NC(=O)[C@@H](N)CC(=O)O)C(C)C)C(=O)N[C@@H](CCC(=O)O)C(=O)N[C@@H](Cc1c[nH]c2ccccc12)C(=O)N[C@@H](CC(C)C)C(=O)N[C@@H](CCCCN)C(=O)N[C@@H](CC(N)=O)C(=O)NCC(=O)NCC(=O)N1CCC[C@H]1C(=O)N[C@@H](CO)C(=O)N[C@@H](CO)C(=O)NCC(=O)N[C@@H](C)C(=O)N1CCC[C@H]1C(=O)N1CCC[C@H]1C(=O)N1CCC[C@H]1C(=O)N[C@@H](CO)C(=O)N[C@@H](CCCNC(=N)N)C(=O)N[C@@H](CCC(N)=O)C(=O)N[C@H](C(=O)N[C@@H](CCCCN)C(=O)N[C@H](C(=O)N[C@@H](Cc1c[nH]c2ccccc12)C(=O)N[C@@H](Cc1ccccc1)C(=O)N[C@@H](CCC(N)=O)C(=O)N[C@@H](CC(N)=O)C(=O)N[C@@H](CCCNC(=N)N)C(=O)N[C@@H](CCCNC(=N)N)C(=O)N[C@@H](CCSC)C(=O)N[C@@H](CCCCN)C(=O)N[C@@H](Cc1c[nH]c2ccccc12)C(=O)N[C@@H](CCCCN)C(=O)N[C@@H](CCCCNC(=O)CN(CCN(CCN(CC(=O)O)CC(=O)O)CC(=O)O)CC(=O)O)C(N)=O)[C@@H](C)CC)[C@@H](C)CC [[111In]In-exendin(9-39)-Pen, metal not drawn]
binding to CHL-GLP1R cells compared with the unconjugated peptide (CHL-GLP1R cells; 30 minutes and 4 hours incubation at 37 °C, approx. 50 pM, acid-releasable fraction): increased binding | internalisation (percentage of the total activity added) (CHL-GLP1R cells; CHL-GLP1R cells, 4 hours incubation at 37 °C, approx. 50 pM 111In-labelled peptide in RPMI-1640 with 0.5% BSA, acid wash then NaOH lysis, γ-counter, mean ± SD of three wells): 17.7 ± 0.5% | tissue uptake at 1 h (in vivo; pancreatic uptake): 2.2 ± 0.3 %ID/g | tissue uptake at 4 h (in vivo; pancreatic uptake): 1.2 ± 0.2 %ID/g | tissue uptake at 1 h (in vivo; tumour accumulation): 8.6 ± 2.2 %ID/g | tissue uptake at 4 h (in vivo; tumour accumulation): 6.6 ± 1.2 %ID/g
